Laboratory results taken from US20250122219A1 (priority 2023, published 2025).

Experiments:
[1] = system: HIV-1 (IIIB); assay: Antiviral assay in MT-4 cells; format: cell-based; details: Human immunodeficiency virus 1, MT4, 120 h; HIV-1 IIIB in MT-4 cells, 5 days incubation, Cell Titer Glo; read-out: MT4 EC50
How it was run: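 Read-out: CellTiter-Glo luminescence after 5 days at 37 °C, reflecting survival of MT-4 cells infected with HIV-1 IIIB (1:250 fresh stock dilution) versus mock-infected. Compounds serially diluted into RPMI with 10% FBS; AZT at 5 μM served as positive control.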

[2] = Cytotoxicity assay in MT-4 cells; format: cell-based; details: human; uninfected MT-4 cells, 5 days incubation, Cell Titer Glo; read-out: MT4 CC50
How it was run: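 Viability read by Cell Titer Glo luminescence after 5 days at 37 °C. MT-4 cells, not infected, in complete RPMI (10% FBS), received compound dilution series. Base cytotoxicity set with […] puromycin.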

Row | SMILES | EC50 [1] [nM] | CC50 at 5 days [2] [nM]
1 | CCCCCCCCCCCCCCCCCCOC(=O)Oc1c2n(cc(C(=O)NCc3ccc(F)cc3F)c1=O)[C@@H]1CN(C2=O)[C@@H](C)CC[C@]12CC(OC)=NO2 [Example 147, (3′S,5S,7′R)-10′-((2,4-difluorobenzyl)carbamoyl)-3-methoxy-3′-methyl-1′,11′-dioxo-1′,4′,5′,11′-tetrahydro-3′H,4H,7′H-spiro[isoxazole-5,6′-[2,7]methanopyrido[1,2-a][1,4]diazonin]-12′-yl octadecyl carbonate] | 7.16 | ≥ 50000
2 | CC1=NO[C@@]2(CC[C@H](C)N3C[C@H]2n2cc(C(=O)NCc4ccc(F)cc4F)c(=O)c(OC(=O)OCC(C)C)c2C3=O)C1 [Example 148, (3′S,5S,7′R)-10′-((2,4-difluorobenzyl)carbamoyl)-3,3′-dimethyl-1′,11′-dioxo-1′,4′,5′,11′-tetrahydro-3′H,4H,7′H-spiro[isoxazole-5,6′-[2,7]methanopyrido[1,2-a][1,4]diazonin]-12′-yl isobutyl carbonate] | 1.85 | 16100
3 | COC1=NO[C@@]2(CC[C@H](C)N3C[C@H]2n2cc(C(=O)NCc4ccc(F)cc4F)c(=O)c(OC(=O)OCC(C)C)c2C3=O)C1 [Example 149, (3′S,5S,7′R)-10′-((2,4-difluorobenzyl)carbamoyl)-3-methoxy-3′-methyl-1′,11′-dioxo-1′,4′,5′,11′-tetrahydro-3′H,4H,7′H-spiro[isoxazole-5,6′-[2,7]methanopyrido[1,2-a][1,4]diazonin]-12′-yl isobutyl carbonate] | 2.17 | 15900
4 | CC1=NO[C@@]2(CC[C@H](C)N3C[C@H]2n2cc(C(=O)NCc4ccc(F)cc4F)c(=O)c(OC(=O)OCCC(C)C)c2C3=O)C1 [Example 150, (3′S,5S,7′R)-10′-((2,4-difluorobenzyl)carbamoyl)-3,3′-dimethyl-1′,11′-dioxo-1′,4′,5′,11′-tetrahydro-3′H,4H,7′H-spiro[isoxazole-5,6′-[2,7]methanopyrido[1,2-a][1,4]diazonin]-12′-yl isopentyl carbonate] | 0.153 | 16000
5 | COC1=NO[C@@]2(CC[C@H](C)N3C[C@H]2n2cc(C(=O)NCc4ccc(F)cc4F)c(=O)c(OC(=O)OCCC(C)C)c2C3=O)C1 [Example 151, (3′S,5S,7′R)-10′-((2,4-difluorobenzyl)carbamoyl)-3-methoxy-3′-methyl-1′,11′-dioxo-1′,4′,5′,11′-tetrahydro-3′H,4H,7′H-spiro[isoxazole-5,6′-[2,7]methanopyrido[1,2-a][1,4]diazonin]-12′-yl isopentyl carbonate] | 0.17 | 18500
6 | CC1=NO[C@@]2(CC[C@H](C)N3C[C@H]2n2cc(C(=O)NCc4ccc(F)cc4F)c(=O)c(OC(=O)OCCCC(C)C)c2C3=O)C1 [Example 152, (3′S,5S,7′R)-10′-((2,4-difluorobenzyl)carbamoyl)-3,3′-dimethyl-1′,11′-dioxo-1′,4′,5′,11′-tetrahydro-3′H,4H,7′H-spiro[isoxazole-5,6′-[2,7]methanopyrido[1,2-a][1,4]diazonin]-12′-yl (4-methylpentyl) carbonate] | 0.573 | 14900
7 | COC1=NO[C@@]2(CC[C@H](C)N3C[C@H]2n2cc(C(=O)NCc4ccc(F)cc4F)c(=O)c(OC(=O)OCCCC(C)C)c2C3=O)C1 [Example 153, (3′S,5S,7′R)-10′-((2,4-difluorobenzyl)carbamoyl)-3-methoxy-3′-methyl-1′,11′-dioxo-1′,4′,5′,11′-tetrahydro-3′H,4H,7′H-spiro[isoxazole-5,6′-[2,7]methanopyrido[1,2-a][1,4]diazonin]-12′-yl (4-methylpentyl) carbonate] | 0.648 | 23600
8 | CC1=NO[C@@]2(CC[C@H](C)N3C[C@H]2n2cc(C(=O)NCc4ccc(F)cc4F)c(=O)c(OC(=O)OCCCCC(C)C)c2C3=O)C1 [Example 154, (3′S,5S,7′R)-10′-((2,4-difluorobenzyl)carbamoyl)-3,3′-dimethyl-1′,11′-dioxo-1′,4′,5′,11′-tetrahydro-3′H,4H,7′H-spiro[isoxazole-5,6′-[2,7]methanopyrido[1,2-a][1,4]diazonin]-12′-yl (5-methylhexyl) carbonate] | 1.72 | 17200
9 | COC1=NO[C@@]2(CC[C@H](C)N3C[C@H]2n2cc(C(=O)NCc4ccc(F)cc4F)c(=O)c(OC(=O)OCCCCC(C)C)c2C3=O)C1 [Example 155, (3′S,5S,7′R)-10′-((2,4-difluorobenzyl)carbamoyl)-3-methoxy-3′-methyl-1′,11′-dioxo-1′,4′,5′,11′-tetrahydro-3′H,4H,7′H-spiro[isoxazole-5,6′-[2,7]methanopyrido[1,2-a][1,4]diazonin]-12′-yl (5-methylhexyl) carbonate] | 1.19 | 17500
10 | CC1=NO[C@@]2(CC[C@H](C)N3C[C@H]2n2cc(C(=O)NCc4ccc(F)cc4F)c(=O)c(OC(=O)OCCCCCC(C)C)c2C3=O)C1 [Example 156, (3′S,5S,7′R)-10′-((2,4-difluorobenzyl)carbamoyl)-3,3′-dimethyl-1′,11′-dioxo-1′,4′,5′,11′-tetrahydro-3′H,4H,7′H-spiro[isoxazole-5,6′-[2,7]methanopyrido[1,2-a][1,4]diazonin]-12′-yl (6-methylheptyl) carbonate] | 2 | 14700
11 | COC1=NO[C@@]2(CC[C@H](C)N3C[C@H]2n2cc(C(=O)NCc4ccc(F)cc4F)c(=O)c(OC(=O)OCCCCCC(C)C)c2C3=O)C1 [Example 157, (3′S,5S,7′R)-10′-((2,4-difluorobenzyl)carbamoyl)-3-methoxy-3′-methyl-1′,11′-dioxo-1′,4′,5′,11′-tetrahydro-3′H,4H,7′H-spiro[isoxazole-5,6′-[2,7]methanopyrido[1,2-a][1,4]diazonin]-12′-yl (6-methylheptyl) carbonate] | 2.33 | 15400
12 | CC1=NO[C@@]2(CC[C@H](C)N3C[C@H]2n2cc(C(=O)NCc4ccc(F)cc4F)c(=O)c(OC(=O)OCCCCCCCC(C)C)c2C3=O)C1 [Example 160, (3′S,5S,7′R)-10′-((2,4-difluorobenzyl)carbamoyl)-3,3′-dimethyl-1′,11′-dioxo-1′,4′,5′,11′-tetrahydro-3′H,4H,7′H-spiro[isoxazole-5,6′-[2,7]methanopyrido[1,2-a][1,4]diazonin]-12′-yl (8-methylnonyl) carbonate] | 1.64 | 12600
13 | COC1=NO[C@@]2(CC[C@H](C)N3C[C@H]2n2cc(C(=O)NCc4ccc(F)cc4F)c(=O)c(OC(=O)OCCCCCCCC(C)C)c2C3=O)C1 [Example 161, (3′S,5S,7′R)-10′-((2,4-difluorobenzyl)carbamoyl)-3-methoxy-3′-methyl-1′,11′-dioxo-1′,4′,5′,11′-tetrahydro-3′H,4H,7′H-spiro[isoxazole-5,6′-[2,7]methanopyrido[1,2-a][1,4]diazonin]-12′-yl (8-methylnonyl) carbonate] | 1.59 | 40600
